In paper PMC7481357, “N-terminal Myristoylation Enhanced the Antimicrobial Activity of Antimicrobial Peptide PMAP-36PW” (Frontiers in Cellular and Infection Microbiology, 2020):
Entries after “also recorded” stand apart in the source; their conditions may differ. Residues, ends and D or L forms follow the SMILES beside them. *: point of attachment. Myristoyl = CCCCCCCCCCCCCC(=O)*

How the values were obtained:
S. typhimurium SL 1344 = assay type: cell-based, Salmonella typhimurium
Experimental: (§1) The MICs of Myr-36PW in vitro were measured through microdilution in accordance with the Clinical and Laboratory Standards Institute (CLSI, [2020]). The bacterial cells were cultured for 12 h at 37°C in the appropriate medium and then diluted to 1 × 10^6 CFU/mL. Equal volumes (100 μL) of bacterial cell suspension and two-fold serially diluted different concentrations peptides (0.0039–256 μg/mL) were added to each well of the sterile 96-well plate. The samples were incubated for 18 h at 37°C. After incubation, the MICs of the peptides were determined by evaluating the growth based on the OD600 of the cultures.

S. aureus ATCC 25923 [1] = assay type: cell-based, Staphylococcus aureus
Experimental: as §1

S. aureus ATCC 25923 [2] = assay: Subcutaneous abscess model; assay type: in vivo, BALB/c mice; settings: injected 20 μL, 1 μg/μL, once a day for 3 days; for Bacterial CFU in abscess area: n = 5
Experimental: A subcutaneous abscess model in vivo was established as previously reported (Zhao et al., [2019]). The mouse dorsal region with 3.0 cm diameter was treated with hair pusher. A total of 120 mice were randomly divided into two experimental models, one was challenged with S. aureus ATCC 25923 (2.5 × 10^8 CFU/mL, 60 μL), and the other was challenged with P. aeruginosa GIM 1.551 (3.0 × 10^8 CFU/mL, 60 μL). In the S. aureus ATCC 25923 model, 60 mice were divided into six groups of 10 members. The mice with no infection and treatment was used as a blank control, those directly injected with PBS (20 μL) as the negative control group, those injected with benzylpenicillin potassium (20 μL, 1 μg/μL) as the positive control group, and the remaining three groups as the treatment groups injected with Myr-36PW (20 μL, 1 μg/μL), PMAP-36PW (20 μL, 1 μg/μL), and PMAP-36 (20 μL, 1 μg/μL). The procedure in P. aeruginosa GIM 1.551 model is the same as that in S. aureus ATCC 25923 model, except for the use of ampicillin sodium as a positive control. Treatment once a day for 3 days was initiated when the mice developed prominent pustules on their backs. A day after the treatment, the size of the abscess was observed, and its tissues were excised, homogenized, and serially diluted. Bacteria CFU counts were calculated.
Figure 10 Treatment efficacy of subcutaneous abscess by Myr-36PW in vivo. Mice were injected with S. aureus ATCC 25923 or P. aeruginosa GIM 1.551 to develop a subcutaneous abscess before treatment. (A) Changes in the abscess area of mice after 3 days treatment. (B,C) Quantitative analysis of bacterial CFU in abscess area that received 3 days treatment under various experimental conditions. The number of CFU in each treatment group was normalized by using the CFU of the experimental group divided by the CFU of the PBS group (100%). BP is benzylpenicillin potassium, AS is ampicillin sodium. Data represent the mean ± SD of five individual experiments. *P < 0.05 and **P < 0.01, compared with PBS. ^#P < 0.05 and ^##P < 0.01, compared with PMAP-36PW.

S. aureus ATCC 25923 [3] = assay: Pneumonia (lung infection) model; assay type: in vivo, BALB/c mice; settings: intranasal 40 μL, 1 μg/μL, once a day for 3 days; for Pathological scores of the lung sections: n = 5; for Bacterial CFU in lung homogenate: reduced vs PBS group P < 0.01, n = 5
Experimental: A pneumonia model in vivo was established as previously reported, with minor modification (Cortés et al., [2002]; Aoki et al., [2009]; Shi et al., [2018]). A total of 120 mice were randomly divided into two experimental models, one was intranasal inoculation of S. aureus ATCC 25923 (8.3 × 10^9 CFU/mL, 50 μL), and the other was intranasal inoculation of P. aeruginosa GIM 1.551 (4.5 × 10^10 CFU/mL, 50 μL). In the S. aureus ATCC 25923 model, 60 mice were divided into the following six groups of 10 mice each: no infection and treatment was used as a blank control, those with intranasal administration of PBS (40 μL) as the negative control group, those administered with benzylpenicillin potassium (40 μL, 1 μg/μL) as the positive control group, and the remaining three corresponded to Myr-36PW (40 μL, 1 μg/μL), PMAP-36PW (40 μL, 1 μg/μL), and PMAP-36 groups (40 μL, 1 μg/μL). The procedure for P. aeruginosa GIM 1.551 model is the same as for S. aureus ATCC 25923 model, except for the use of ampicillin sodium as the positive control. After 4 h post-inoculation, treatment was initiated, once a day for 3 days. The mice were sacrificed 24 h after the treatment. Changes in the appearance of lung tissues were observed, and lung tissues were removed aseptically from the mice. Half of the removed lung tissues were gently fixed in buffered formaldehyde solution for histopathological assessment by hematoxylin and eosin (H&E) staining. Pathological changes were scored to provide individual therapeutic status as described previously (Lei et al., [2018]). The remaining lung tissues were added with 1 mL of PBS, homogenized, and serially diluted. Bacterial CFU counts were determined.
Figure 8 Therapeutic effect for pneumonia by Myr-36PW in vivo. Mice were injected with S. aureus ATCC 25923 or P. aeruginosa GIM 1.551 to form pneumonia, and lungs (n = 5) in each group were collected on day 4 after intranasal bacterial inoculation. (A) Morphological changes of lung tissues. (B) Representative histopathological images of processed lung section with hematoxylin and eosin (H&E) staining. Images are presented at a magnification of 20×. a: inflammatory cell infiltration. b: the alveolar wall is thickened. c: alveolar wall congestion or alveolar hemorrhage. (C,D) Pathological scores of the lung sections. Scoring standard: 1 indicated no pathology, 2 indicated local pulmonary congestion and inflammatory cell infiltration, 3 indicated pulmonary congestion and a large number of inflammatory cell infiltration, affecting <20% of the section, 4 indicated pulmonary congestion and a large number of inflammatory cell infiltration, affecting 20–50% of the section, and 5 indicated pulmonary congestion and a large number of inflammatory cell infiltration, affecting >50% of the section. (E,F) Bacterial CFU in lung homogenate. BP is benzylpenicillin potassium, AS is ampicillin sodium. Data represent the mean ± SD of five individual experiments.

[4] = test system: L. monocytogenes CICC 21634; assay type: cell-based, Listeria monocytogenes
Experimental: as §1

P. aeruginosa GIM 1.551 = assay type: cell-based, Pseudomonas aeruginosa
Experimental: as §1

MICs of different classes of antibiotics (S. typhimurium SL 1344; S. typhimurium SL 1344, * indicates resistant (CLSI, 2020))	MICs of different classes of antibiotics (S. aureus ATCC 25923 [1]; S. aureus ATCC 25923, * indicates resistant (CLSI, 2020))	MICs of different classes of antibiotics ([4]; L. monocytogenes CICC 21634, * indicates resistant (CLSI, 2020))	MICs of different classes of antibiotics (P. aeruginosa GIM 1.551; P. aeruginosa GIM 1.551, * indicates resistant (CLSI, 2020))	Structure (SMILES)	Abscess area (S. aureus ATCC 25923 [2])	Bacterial CFU in abscess area (S. aureus ATCC 25923 [2])	Lung histopathology (H&E) (S. aureus ATCC 25923 [3])	Pathological scores of the lung sections (S. aureus ATCC 25923 [3])	Bacterial CFU in lung homogenate (S. aureus ATCC 25923 [3])	MICs (S. typhimurium SL 1344; SL 1344, 18 h)	MICs (S. aureus ATCC 25923 [1]; ATCC 25923, 18 h)	MICs ([4]; CICC 21634, 18 h)	MICs (P. aeruginosa GIM 1.551; GIM 1.551, 18 h)
16 µg/mL	<0.25 µg/mL	64 µg/mL	64 µg/mL	CC1(C)S[C@@H]2[C@H](NC(=O)Cc3ccccc3)C(=O)N2[C@H]1C(=O)O [Benzylpenicillin potassium]	significantly reduced the abscess area and effectively suppressed its growth	lower than that in PBS group (P < 0.01)	a complete alveolar structure, reduced blood stasis, and large reduction in inflammatory cells	lower scores than PMAP-36PW group (P < 0.05)	reduced; also recorded: lower than that for PMAP-36PW group (P < 0.05)	–	–	–	–
–	–	–	–	CCCCCCCCCCCCCC(=O)NCC(=O)NCC(=O)N[C@@H](CCCNC(=N)N)C(=O)N[C@@H](Cc1ccccc1)C(=O)N[C@@H](CCCNC(=N)N)C(=O)N[C@@H](CCCNC(=N)N)C(=O)N[C@@H](CC(C)C)C(=O)N[C@@H](CCCNC(=N)N)C(=O)N[C@@H](CCCCN)C(=O)N[C@@H](CCCCN)C(=O)N[C@H](C(=O)N[C@@H](CCCNC(=N)N)C(=O)N[C@@H](CCCCN)C(=O)N[C@@H](CCCNC(=N)N)C(=O)N[C@@H](CC(C)C)C(=O)N[C@@H](CCCCN)C(=O)N[C@@H](CCCCN)C(=O)N[C@H](C(=O)NCC(=O)N[C@@H](CCCCN)C(=O)N[C@H](C(=O)N[C@@H](CC(C)C)C(=O)N[C@@H](CCCCN)C(=O)N[C@@H](Cc1c[nH]c2ccccc12)C(=O)N[C@H](C(=O)N[C@@H](Cc1c[nH]c2ccccc12)C(=O)N[C@@H](Cc1c[nH]c2ccccc12)C(=O)N[C@H](C(=O)N[C@H](C(=O)NCC(=O)N[C@@H](CO)C(=O)N[C@H](C(=O)N1CCC[C@H]1C(=O)N[C@@H](CC(C)C)C(=O)NCC(=O)N[C@@H](CS)C(=O)NCC(=O)O)[C@@H](C)CC)C(C)C)[C@@H](C)CC)[C@@H](C)CC)C(C)C)[C@@H](C)CC)[C@@H](C)O [Myr-36PW] (Myristoyl-GGRFRRLRKKTRKRLKKIGKVLKWIWWIVGSIPLGCG-OH; C-terminus assumed)	significantly reduced the abscess area and effectively suppressed its growth	lower than that in PBS group (P < 0.01)	a complete alveolar structure, reduced blood stasis, and large reduction in inflammatory cells	lower scores than PMAP-36PW group (P < 0.05)	reduced; also recorded: lower than that for PMAP-36PW group (P < 0.05)	8 µg/mL	0.0020 µg/mL	0.5 µg/mL	0.25 µg/mL
